In US20220257557A1, “PHARMACEUTICAL COMPOSITION FOR PREVENTING OR TREATING NEUROLOGICAL DISEASES” (GLACEUM INC., priority 2019, published 2022):

Tests used:
[1] = system: PON2 (Paraoxonase 2); assay: Relative expression level of PON2 in liver of DIO mice (Western blot, relative to actin); type: in vivo, C57BL/6J DIO mice; conditions: 100 mg/kg orally once daily for 6 weeks, 60% fat diet
Method: 14-Week-old C57BL/6J DIO (Diet Induced Obesity) mice (The Jackson Laboratory, USA) were purchased. The normal control group was fed a 10% fat diet for 3 weeks, and the DIO control group was fed a 60% fat diet for 3 weeks. In addition, the Formula III-1 compound-administered group was fed a 60% fat diet for 3 weeks, and then 100 mg/kg of the compound of Formula III-1 was orally administered thereto once daily for 6 weeks.
The mice of the normal control group, the DIO control group and the Formula III-1 compound-administered group were euthanized, and the liver tissues were extracted therefrom, washed with a PBS solution containing PIC (protease inhibitor cocktail), sectioned to a size of 0.2 to 0.5 g, and stored at −196° C. until the experiment. […]
A lysis buffer (CelLytic™ Cell Lysis Reagent, Sigma-Aldrich Corp.) containing a protease inhibitor cocktail was added to the liver tissue which was then minced using a homogenizer, incubated at 0° C. for 30 minutes, and centrifuged at 14,000 rpm for 15 minutes at 4° C. to obtain the supernatant. The protein concentration was quantified using the Bradford method, and then the same amount of protein was separated by electrophoresis on 10% SDS-PAGE and transferred to a polyvinylidene difluoride membrane (PVDF; Pall Corporation, USA) in glycine-methanol buffer. […]

[2] = system: SH-SY5Y cells; assay: Cell death from MPP+ mitochondrial damage, MTT cell viability; type: cell-based, Human; conditions: 1 mM MPP+ 24 h, then 0.0001-1 μM compound 24 h, FIG. 2
Method: (§1) Human neuronal SH-SY5Y cells were cultured in a 1:1 DMEM/F12 medium containing 10% FBS (fetal bovine serum) at 37° C. under 5% carbon dioxide and 95% air. The cultured cells were transferred to a 96-well cell culture plate at a density of 2*10^4 cells/well and cultured for 24 hours. Thereafter, after replacement with serum-restricted medium (1:1 DMEM/F12 medium containing 0.5% FBS), the cells were cultured for 16 hours. Then, the cultured cells were treated with 1 mM MPP+ (1-methyl-4-phenylpyridinium) and cultured for 24 hours, thus inducing mitochondrial dysfunction in the cells. […]
Each of the cultures obtained in Experimental Example 3-1 was treated with 0.2 mg/ml of 3-(4,5-dimethylthiazol-2-yl)-2,5-diphenyl-tetrazolium bromide (MTT; Sigma-Aldrich) and cultured for 4 hours. The MTT formazan precipitate formed by the viable cells was dissolved in 100 μl of 0.04N hydrochloric acid/isopropanol, and the absorbance at 540 nm was measured using an ELISA microplate reader (Molecular Devices).
The absorbances of controls were measured in the same manner as the above-described method, except for using a sample to which DMSO was added (normal control) instead of MMP+ and the compound of Formula III-1 and a sample to which the compound of Formula III-1 was not added (negative control).
The cell viability percentage was calculated from the absorbance.

[3] = system: SH-SY5Y cells; assay: Mitochondrial reactive oxygen species (MitoSOX Red) after MPP+; type: cell-based, Human; conditions: 1 mM MPP+ 24 h, then 0.0001-1 μM compound 24 h, FIG. 5
Method: as §1
The level of reactive oxygen species generated in mitochondria was measured using a reduced fluorescent material called MitoSOX™ Red reagent.
Specifically, the culture obtained in Experimental Example 3-1 was treated with 50 μg of MitoSOX Red dissolved in 13 μl DMSO and was incubated at 37° C. for 1 hour. […] Then, the fluorescence intensity at an excitation wavelength of 510 nm and an emission wavelength of 595 nm was measured with a fluorescence analyzer to determine the level of reactive oxygen species generated in the mitochondria. […]
The concentration of MitoSOX Red determined from the fluorescence intensity was expressed as a percentage of the normal control.

[4] = system: BV2 cells; assay: iNOS and COX-2 expression after LPS (Western blot); type: cell-based; conditions: 3 h pretreatment (Table 3 amounts), LPS 1 μg/ml 24 h
Method in brief: (§2)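 RAW264.7 or BV2 cells (5×10^5 cells/well) in DMEM with 10% FBS were pretreated with compound, then stimulated with 1 μg/ml LPS for 24 h. iNOS and COX-2 expression by Western blot; NO and PGE2 production measured. Compound toxicity checked by MTT.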

[5] = system: RAW264.7 cells; assay: iNOS and COX-2 expression after LPS (Western blot); type: cell-based; conditions: 3 h pretreatment (Table 3 amounts), LPS 1 μg/ml 24 h
Method in brief: as §2

[6] = system: RAW264.7 cells; assay: Transcription of NF-κB protein (p65, p50) into nucleus after LPS (Western blot); type: cell-based; conditions: 3 h pretreatment (Table 3 amounts), LPS 1 μg/ml 1 h
Method in brief: (§3)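 Cells (5×10^5/well) cultured in DMEM with 10% FBS at 37° C, 5% CO2, pretreated with compound, then stimulated with 1 μg/ml LPS for 1 hour. Nuclear levels of p65 and p50 measured by Western blot.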

[7] = system: BV2 cells; assay: as above; type: cell-based; conditions: 3 h pretreatment (Table 3 amounts), LPS 1 μg/ml 1 h
Method in brief: as §3

Structure (SMILES): CCOc1ccc(C2COc3c(ccc4c3CCC(C)(C)O4)C2)c(O)c1 (stereo not drawn) [Formula III-1, 2-(8,8-dimethyl-2,3,4,8,9,10-hexahydropyrano[2,3-f]chromen-3-yl)-5-ethoxyphenol]
- expression level of PON2 compared with DIO control group ([1]; FIG. 1): higher
- expression level of PON2 compared with normal control group ([1]; FIG. 1b): higher
- function of mitochondria damaged by MPP+ (cell viability percentage) [2]: restored
- level of reactive oxygen species generated in the mitochondria (Mito-SOX) [3]: decreased
- expression level of COX-2 [4]: concentration-dependently decreased
- expression level of iNOS [4]: concentration-dependently decreased
- expression level of COX-2 [5]: concentration-dependently decreased
- expression level of iNOS [5]: concentration-dependently decreased
- level of transcription of NF-κB protein into the nucleus, p50 [6]: concentration-dependently decreased
- level of transcription of NF-κB protein into the nucleus, p65 [6]: concentration-dependently decreased
- level of transcription of NF-κB protein into the nucleus, p50 [7]: concentration-dependently decreased
- level of transcription of NF-κB protein into the nucleus, p65 [7]: concentration-dependently decreased
